One assay has as its system Nalm-6 SF3B1^K700K cells. Nature of the assay: Normal and aberrant splicing in Nalm-6 isogenic cells by qPCR. The settings on record: increasing concentrations, six hours. Format: cell-based, human. As for the experimental part: (§1) E7107 was also tested in vitro in Nalm-6 isogenic cell lines for the ability to modulate normal and aberrant splicing induced by SF3B1^WT and SF3B1^K700E protein. Nalm-6 isogenic cells were treated with increasing concentrations of E7107 for six hours and RNA was analyzed by qPCR.
(§2) In addition, the ability of E7107 to modulate splicing was tested in mice bearing human tumor xenografts. Nalm-6 isogenic xenograft mice were generated by subcutaneously implanting 10×10^6 Nalm-6 isogenic cells into the flank of CB17-SCID mice, and tumors from these mice were collected at different timepoints after a single intravenous (IV) dose of E7107 (5 mg/kg) and analyzed to determine compound concentrations and splicing regulation. RNA was isolated from the tumors using RiboPure™ RNA purification kit (Ambion®) and used for NanoString® assay or qPCR. The RNA was retrotranscribed according to the instructions of the SuperScript® VILO™ cDNA synthesis kit (Invitrogen™) and 0.04 μl of cDNA was used for qPCR. qPCR for pre-mRNA EIF4A1 and mature mRNA […] and pharmacokinetic evaluation were performed as described in Eskens, F. A. et al. “Phase I pharmacokinetic and pharmacodynamic study of the first-in-class spliceosome inhibitor E7107 in patients with advanced solid tumors.” Clin Cancer Res 19, 6296-6304, doi:10.1158/1078-0432.CCR-13-0485 (2013). The primers and probes used for ZDHHC16 were the following: FW 5′-[…] (SEQ ID NO: 1194), RW 5′ […] (SEQ ID NO: 1195) and probe 5′ FAM […] (SEQ ID NO: 1196). The primers and probes used for COASY were the following: FW 5′-CGGTGGTGCAAGTGGAA (SEQ ID NO: 1197), RW 5′-[…] (SEQ ID NO: 1198) and probe 5′-FAM-[…] (SEQ ID NO: 1199).

The subject of the next assay is Nalm-6 SF3B1^K700E cells. Described as above. It is filed as cell-based, human. The settings on record: increasing concentrations, six hours. As to the method:
as §1, §2

In assay [1] the test system is SF3B1^WT CLL patient samples. Nature of the assay: Splicing inhibition in CLL patient samples in vitro by RNA-Seq. Format: cell-based, human. Conditions: 10 nM, 6 hours. As for the experimental part: The ability of E7107 to inhibit splicing in CLL patient samples in vitro was determined by isolating RNA from samples of E7107-treated patient cells treated for 6 hours with E7107 at 10 nM and performing RNA-Seq analysis. To do so, cells were washed with PBS after treatment with E7107, and RNA was isolated using PureLink (Life Technology) as reported in the manufacturer's manual. cDNA library preparation, sequencing and raw read filtering was performed as described in Ren, S. et al. “RNA-Seq analysis of prostate cancer in the Chinese population identifies recurrent gene fusions, cancer-associated long noncoding RNAs and aberrant alternative splicings.” Cell Res 22, 806-821, doi:10.1038/cr.2012.30 (2012).

A further assay concerns the target SF3B1^K700E (Homo sapiens, UniProt O75533+Q7RTV0, K700E). Nature of the assay: Competitive binding assay (SPA, 3H-probe molecule) with Flag-tag SF3B1 from 293F cells. Further details: expressed in transfected cells; host or cells: 293F cells (Life Technologies), transient transfection with pFLAG-CMV-2-SF3B1 K700E. Conditions: one nM 3H-probe; Flag-tag SF3B1^K700E from transfected 293F cells; read-out: IC50, competitive inhibition of binding of the 3H-probe molecule. As to the method:
The ability of E7107 to bind both SF3B1^WT and SF3B1^K700E proteins was evaluated in a competitive binding assay using Flag-tag SF3B1 proteins immunoprecipitated with anti-Flag antibody from transiently transfected 293F cells. Batch immobilization of antibody to beads was prepared by incubating 80 μg of anti-SF3B1 antibody (MBL International) and 24 mg anti-mouse PVT SPA scintillation beads (PerkinElmer) for 30 minutes. After centrifugation, the antibody-bead mixture was resuspended in PBS supplemented with PhosSTOP phosphatase inhibitor cocktail (Roche) and complete ULTRA protease inhibitor cocktail (Roche). Nuclear extracts were prepared by diluting 40 mg into a total volume of 16 mL PBS with phosphatase and protease inhibitors, and the mixture was centrifuged. The supernatant was transferred into a clean tube, and the antibody-bead mixture was added and incubated for two hours. The beads were collected by centrifuging, washed twice with PBS+0.1% Triton X-100, and resuspended with 4.8 mL of PBS. 100 μL binding reactions were prepared using slurry and varying concentrations of E7107. […] The mixture was incubated at room temperature for 15 minutes, and luminescence signals were read using a MicroBeta2 Plate Counter (PerkinElmer).

Sequence of SF3B1^K700E (Q15393 whole entry, stated change not applied): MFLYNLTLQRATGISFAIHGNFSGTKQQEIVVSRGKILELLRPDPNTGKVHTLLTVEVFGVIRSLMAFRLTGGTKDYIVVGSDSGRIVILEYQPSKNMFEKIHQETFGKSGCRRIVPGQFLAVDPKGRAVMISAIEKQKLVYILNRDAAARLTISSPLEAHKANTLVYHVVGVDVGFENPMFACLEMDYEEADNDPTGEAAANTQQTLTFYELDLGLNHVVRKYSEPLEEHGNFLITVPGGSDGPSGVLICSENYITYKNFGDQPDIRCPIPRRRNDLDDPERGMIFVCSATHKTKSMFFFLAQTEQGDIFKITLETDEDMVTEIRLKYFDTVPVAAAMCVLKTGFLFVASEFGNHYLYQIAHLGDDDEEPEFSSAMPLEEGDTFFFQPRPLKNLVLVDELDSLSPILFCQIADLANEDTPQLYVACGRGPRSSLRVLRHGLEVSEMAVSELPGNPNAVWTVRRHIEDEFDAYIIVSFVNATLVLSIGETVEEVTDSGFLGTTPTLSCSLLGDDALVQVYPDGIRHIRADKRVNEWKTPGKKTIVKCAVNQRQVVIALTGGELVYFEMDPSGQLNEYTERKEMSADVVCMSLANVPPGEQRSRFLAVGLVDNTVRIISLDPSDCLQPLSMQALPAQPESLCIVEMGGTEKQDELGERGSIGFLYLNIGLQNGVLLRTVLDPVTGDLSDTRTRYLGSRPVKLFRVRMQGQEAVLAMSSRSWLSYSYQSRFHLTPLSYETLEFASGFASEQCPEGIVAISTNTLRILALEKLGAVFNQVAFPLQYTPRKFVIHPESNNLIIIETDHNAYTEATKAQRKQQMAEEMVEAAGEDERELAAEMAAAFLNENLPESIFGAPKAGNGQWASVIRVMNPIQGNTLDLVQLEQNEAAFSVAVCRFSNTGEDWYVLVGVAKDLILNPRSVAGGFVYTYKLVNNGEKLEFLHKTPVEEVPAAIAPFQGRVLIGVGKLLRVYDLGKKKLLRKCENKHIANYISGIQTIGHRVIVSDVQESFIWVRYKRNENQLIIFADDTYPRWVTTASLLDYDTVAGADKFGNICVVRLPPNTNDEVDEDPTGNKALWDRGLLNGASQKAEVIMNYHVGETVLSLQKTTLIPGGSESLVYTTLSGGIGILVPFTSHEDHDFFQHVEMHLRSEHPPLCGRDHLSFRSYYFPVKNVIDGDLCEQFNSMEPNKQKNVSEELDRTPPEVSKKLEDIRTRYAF
Sequence of SF3B1^K700E (Q9BWJ5 whole entry, further chain): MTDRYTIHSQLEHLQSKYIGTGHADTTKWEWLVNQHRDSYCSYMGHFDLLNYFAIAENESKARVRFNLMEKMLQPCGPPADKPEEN
Sequence of SF3B1^K700E (Q7RTV0 whole entry): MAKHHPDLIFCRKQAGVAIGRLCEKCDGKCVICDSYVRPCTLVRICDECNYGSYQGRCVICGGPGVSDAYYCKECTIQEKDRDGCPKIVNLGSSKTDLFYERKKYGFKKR
Sequence of SF3B1^K700E (O75533 whole entry K700E): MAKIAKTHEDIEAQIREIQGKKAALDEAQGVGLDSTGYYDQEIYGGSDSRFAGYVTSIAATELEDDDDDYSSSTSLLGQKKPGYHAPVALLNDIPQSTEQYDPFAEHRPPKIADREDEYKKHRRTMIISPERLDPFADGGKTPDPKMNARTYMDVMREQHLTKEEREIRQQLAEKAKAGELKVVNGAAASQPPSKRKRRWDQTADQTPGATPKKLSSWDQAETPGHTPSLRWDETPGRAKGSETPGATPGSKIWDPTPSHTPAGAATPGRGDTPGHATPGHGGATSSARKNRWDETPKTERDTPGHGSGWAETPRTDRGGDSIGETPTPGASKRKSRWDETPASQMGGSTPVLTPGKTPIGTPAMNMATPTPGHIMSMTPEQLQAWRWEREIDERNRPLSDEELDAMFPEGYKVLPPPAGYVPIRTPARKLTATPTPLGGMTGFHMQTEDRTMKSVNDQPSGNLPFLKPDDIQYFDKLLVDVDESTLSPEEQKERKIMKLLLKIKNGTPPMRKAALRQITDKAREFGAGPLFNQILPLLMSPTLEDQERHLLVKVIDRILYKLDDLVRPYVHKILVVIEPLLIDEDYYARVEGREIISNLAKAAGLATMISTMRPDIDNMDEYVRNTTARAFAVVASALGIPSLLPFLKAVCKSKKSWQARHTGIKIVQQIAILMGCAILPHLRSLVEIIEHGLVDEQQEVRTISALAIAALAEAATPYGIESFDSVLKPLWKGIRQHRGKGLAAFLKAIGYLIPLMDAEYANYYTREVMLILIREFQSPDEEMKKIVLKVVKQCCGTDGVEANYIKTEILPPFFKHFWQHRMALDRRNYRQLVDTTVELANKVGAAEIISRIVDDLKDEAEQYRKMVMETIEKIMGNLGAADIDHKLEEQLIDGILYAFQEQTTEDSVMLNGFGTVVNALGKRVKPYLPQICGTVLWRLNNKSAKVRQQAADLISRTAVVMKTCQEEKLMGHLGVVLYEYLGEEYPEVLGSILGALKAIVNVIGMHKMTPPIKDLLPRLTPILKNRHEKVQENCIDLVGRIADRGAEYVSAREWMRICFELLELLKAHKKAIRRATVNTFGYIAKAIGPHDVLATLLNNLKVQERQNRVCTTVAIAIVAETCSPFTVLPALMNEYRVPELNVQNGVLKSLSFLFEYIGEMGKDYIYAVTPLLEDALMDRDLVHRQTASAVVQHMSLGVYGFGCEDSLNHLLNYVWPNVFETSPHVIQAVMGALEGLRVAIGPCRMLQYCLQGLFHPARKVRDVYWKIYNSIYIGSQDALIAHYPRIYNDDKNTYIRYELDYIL

For the molecule `CC[C@H](O)[C@@H](C)[C@H]1O[C@@H]1C[C@@](C)(O)/C=C/C=C(\C)[C@H]1OC(=O)C[C@H](O)CC[C@@](C)(O)[C@@H](OC(=O)N2CCN(C3CCCCCC3)CC2)/C=C/[C@@H]1C` [Compound E7107], in the assay with Nalm-6 SF3B1^K700K cells, the “EIF4A1 pre-mRNA level (canonical splicing)” value was “accumulation of pre-mRNA for EIF4A1” and the “SLC25A19 mature mRNA level (canonical splicing)” value was “downregulation of the mature mRNA SLC25A19”. Moreover, in the assay with Nalm-6 SF3B1^K700E cells, the “EIF4A1 pre-mRNA level (canonical splicing)” value is listed as “accumulation of pre-mRNA for EIF4A1”, the “SLC25A19 mature mRNA level (canonical splicing)” value is “downregulation of the mature mRNA SLC25A19”, the “mature mRNA of abnormally spliced isoform of COASY” value is listed as “downregulation of mature mRNA” and the “mature mRNA of abnormally spliced isoform of ZDHHC16” value is “downregulation of mature mRNA”. Moreover, in assay [1], the “expression of canonical splice isoforms” value is “inhibited the expression of canonical splice isoforms”. Further, on SF3B1^K700E, the IC50 came to 11 nM.

Source of the values: patent US11761045B2, “Splice variants associated with neomorphic SF3B1 mutants” (Eisai R&D Management Co., Ltd., priority 2015, dated 2023).
